{"source": "patent US20260356841A1", "about": "“HETEROCYCLIC PYRIDINONE COMPOUNDS AS TRIGGERING RECEPTOR EXPRESSED ON MYELOID CELLS 2 AGONISTS AND METHODS OF USE” (Vigil Neuroscience, Inc., priority 2023, published 2026)"}
{"biological_target": "T1, human TREM2 (Homo sapiens, UniProt Q9NZC2)", "T1 construct": "expressed in transfected cells; host or cells: HEK293T (HEK293T-hTREM2 cells)", "T1 sequence (Q9NZC2 19-230)": "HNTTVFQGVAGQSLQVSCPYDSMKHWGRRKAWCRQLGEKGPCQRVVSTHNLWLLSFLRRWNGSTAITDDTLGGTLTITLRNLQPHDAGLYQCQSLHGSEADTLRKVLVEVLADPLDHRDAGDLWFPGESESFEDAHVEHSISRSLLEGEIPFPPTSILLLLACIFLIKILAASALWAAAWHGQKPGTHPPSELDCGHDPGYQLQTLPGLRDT", "T1 sequence (O43914 22-113 partner)": "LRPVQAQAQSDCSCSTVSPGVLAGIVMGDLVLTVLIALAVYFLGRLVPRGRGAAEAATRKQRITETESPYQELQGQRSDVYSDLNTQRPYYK", "assay": "TREM2 agonist potency by cellular phosphorylation of Spleen Tyrosine Kinase (Syk), AlphaLisa, HEK293T-hTREM2 cells", "type": "cell-based", "conditions": "not given", "method_in_brief": "(§1)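 HEK293T cells co-expressing human TREM2 and DAP12, plated 20–24 h before use. Compounds applied 45 min at room temperature in assay buffer, then cells lysed and phospho-Syk quantified by AlphaLisa. Percent activation from a standard curve; EC50 from a four-parameter variable-slope fit.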", "units": {"EC50": "nM"}}
{"smiles": "Cc1nc2nc(N3C[C@@H](C)O[C@@H](c4ccc(=O)n(C)c4)C3)nc(C34CC(C(F)(F)F)(C3)C4)c2nc1C(F)F", "note": "[Example 180, 5-[(2S,6R)-4-[6-(difluoromethyl)-7-methyl-4-[3-(trifluoromethyl)-1-bicyclo[1.1.1]pentanyl]pteridin-2-yl]-6-methyl-morpholin-2-yl]-1-methyl-pyridin-2-one]", "EC50": "< 100"}
{"biological_target": "T1, human TREM2", "assay": "TREM2 agonist potency by cellular phosphorylation of Spleen Tyrosine Kinase (Syk), AlphaLisa, HEK293T-hTREM2 cells", "type": "cell-based", "conditions": "hTREM2 EC50 Data (HEK293 Cells); Syk phosphorylation, AlphaLisa; read-out: hTREM2 EC50", "method_in_brief": "as §1", "units": {"EC50": "nM"}}
{"smiles": "COc1nc2c(C34CC(C(F)(F)F)(C3)C4)nc([C@H]3CCO[C@@H](c4ccc(=O)n(CC#N)c4)C3)nc2nc1C", "note": "[Example 145, 2-[5-[(2R,4S)-4-[6-methoxy-7-methyl-4-[3-(trifluoromethyl)-1-bicyclo-[1.1.1]pentanyl]pteridin-2-yl]tetrahydropyran-2-yl]-2-oxo-1-pyridyl]acetonitrile]", "EC50": "< 100"}
{"smiles": "[2H]C([2H])([2H])n1cc([C@H]2C[C@@H](c3nc(C45CC(C(F)(F)F)(C4)C5)c4nc(OC)c(C)nc4n3)CCO2)ccc1=O", "note": "[Example 147, 5-((2R,4S)-4-(6-methoxy-7-methyl-4-(3-(trifluoromethyl)-bicyclo[1.1.1]pentan-1-yl)pteridin-2-yl)tetrahydro-2H-pyran-2-yl)-1-(methyl-d3)pyridin-2(1H)-one]", "EC50": "< 100"}
{"smiles": "[2H]C([2H])([2H])n1cc([C@H]2C[C@@H](c3nc(C45CC(C(F)(F)F)(C4)C5)c4nc(OC)c(C)nc4n3)CCO2)cc(C)c1=O", "note": "[Example 149, 5-[(2R,4S)-4-[6-methoxy-7-methyl-4-[3-(trifluoromethyl)-1-bicyclo-[1.1.1]pentanyl]pteridin-2-yl]tetrahydropyran-2-yl]-3-methyl-1-(trideuteriomethyl)-pyridin-2-one]", "EC50": "< 100"}
{"smiles": "COc1nc2c(C34CC(C(F)(F)F)(C3)C4)nc([C@H]3CCO[C@@H](c4ccc(=O)n(-c5csc(C)n5)c4)C3)nc2nc1C", "note": "[Example 153, 5-((2R,4S)-4-(6-methoxy-7-methyl-4-(3-(trifluoromethyl)-bicyclo[1.1.1]pentan-1-yl)pteridin-2-yl)tetrahydro-2H-pyran-2-yl)-1-(2-methylthiazol-4-yl)pyridin-2(1H)-one]", "EC50": "< 100"}
{"smiles": "Cc1nc2c(C34CC(C(F)(F)F)(C3)C4)nc([C@H]3CCO[C@@H](c4ccc(=O)n(C)c4)C3)nc2nc1C1CC1", "note": "[Example 155, 1-methyl-5-[(2R,4S)-4-[7-cyclopropyl-6-methyl-4-[3-(trifluoro-methyl)-1-bicyclo[1.1.1]pentanyl]-pteridin-2-yl]tetrahydropyran-2-yl]pyridin-2-one]", "EC50": "< 100"}
{"smiles": "Cc1nc2c(C34CC(C(F)(F)F)(C3)C4)nc([C@@H]3CCO[C@H](c4ccc(=O)n(C)c4)C3)nc2nc1C1CC1", "note": "[Example 156, 1-methyl-5-[(2S,4R)-4-[7-cyclopropyl-6-methyl-4-[3-(trifluoro-methyl)-1-bicyclo[1.1.1]pentanyl]pteridin-2-yl]tetrahydropyran-2-yl]pyridin-2-one]", "EC50": "< 100"}
{"smiles": "Cc1nc2nc([C@H]3CCO[C@@H](c4ccc(=O)n(C)c4)C3)nc(C34CC(C(F)(F)F)(C3)C4)c2nc1C1CC1", "note": "[Example 158, 1-methyl-5-[(2R,4S)-4-[6-cyclopropyl-7-methyl-4-[3-(trifluoro-methyl)-1-bicyclo[1.1.1]pentanyl]pteridin-2-yl]tetrahydropyran-2-yl]pyridin-2-one]", "EC50": "< 100"}
{"smiles": "Cc1nc2nc([C@@H]3CCO[C@H](c4ccc(=O)n(C)c4)C3)nc(C34CC(C(F)(F)F)(C3)C4)c2nc1C1CC1", "note": "[Example 159, 1-methyl-5-[(2S,4R)-4-[6-cyclopropyl-7-methyl-4-[3-(trifluoro-methyl)-1-bicyclo[1.1.1]pentanyl]pteridin-2-yl]tetrahydropyran-2-yl]pyridin-2-one]", "EC50": "< 100"}
{"smiles": "Cc1nc2nc([C@H]3CCO[C@@H](c4cnc(=O)n(C)c4)C3)nc(C34CC(C(F)(F)F)(C3)C4)c2nc1C", "note": "[Example 161]", "EC50": "< 100"}
{"smiles": "Cc1nc2nc([C@@H]3CCO[C@H](c4cnc(=O)n(C)c4)C3)nc(C34CC(C(F)(F)F)(C3)C4)c2nc1C", "note": "[Example 162, 1-methyl-5-[(2S,4R)-4-[6,7-dimethyl-4-[3-(trifluoromethyl)-1-bicyclo[1.1.1]-pentanyl]pteridin-2-yl]tetrahydropyran-2-yl]pyrimidin-2-one]", "EC50": "< 100"}
{"smiles": "Cc1nc2nc([C@H]3CCO[C@H](c4cnc(=O)n(C)c4)C3)nc(C34CC(C(F)(F)F)(C3)C4)c2nc1C", "note": "[Example 163, 1-methyl-5-[(2S,4S)-4-[6,7-dimethyl-4-[3-(trifluoromethyl)-1-bicyclo[1.1.1]pentanyl]pteridin-2-yl]tetrahydropyran-2-yl]pyrimidin-2-one]", "EC50": "< 100"}
{"smiles": "Cc1nc2nc([C@H]3CCO[C@@H](c4ccc(=O)n(C)c4)C3)cc(C34CC(C(F)(F)F)(C3)C4)c2nc1C", "note": "[Example 167, 1-methyl-5-[(2R,4S)-4-[2,3-dimethyl-8-[3-(trifluoromethyl)-1-bicyclo[1.1.1]pentanyl]pyrido[2,3-b]pyrazin-6-yl]tetrahydropyran-2-yl]pyridin-2-one]", "EC50": "< 100"}
{"smiles": "Cc1nc2nc([C@@H]3CCO[C@H](c4ccc(=O)n(C)c4)C3)cc(C34CC(C(F)(F)F)(C3)C4)c2nc1C", "note": "[Example 168, 1-methyl-5-[(2S,4R)-4-[2,3-dimethyl-8-[3-(trifluoromethyl)-1-bicyclo[1.1.1]pentanyl]pyrido[2,3-b]pyrazin-6-yl]tetrahydropyran-2-yl]pyridin-2-one]", "EC50": "< 100"}
{"smiles": "Cc1nc2nc([C@@H]3CCO[C@@H](c4ccc(=O)n(C)c4)C3)cc(C34CC(C(F)(F)F)(C3)C4)c2nc1C", "note": "[Example 169, 1-methyl-5-[(2R,4R)-4-[2,3-dimethyl-8-[3-(trifluoromethyl)-1-bicyclo-[1.1.1]pentanyl]pyrido[2,3-b]pyrazin-6-yl]tetrahydropyran-2-yl]pyridin-2-one]", "EC50": "< 100"}
{"smiles": "Cc1nc2nc([C@H]3CCO[C@H](c4ccc(=O)n(C)c4)C3)cc(C34CC(C(F)(F)F)(C3)C4)c2nc1C", "note": "[Example 170, 1-methyl-5-[(2S,4S)-4-[2,3-dimethyl-8-[3-(trifluoromethyl)-1-bicyclo[1.1.1]pentanyl]pyrido[2,3-b]pyrazin-6-yl]tetrahydropyran-2-yl]pyridin-2-one]", "EC50": "100 to 500"}
{"smiles": "C[C@@H]1CN(c2nc(-c3ccc(F)cc3F)c3sc(N(C)C)nc3n2)C[C@H](c2ccc(=O)[nH]c2)O1", "note": "[Example 173, 5-[(2S,6R)-4-[7-(2,4-difluorophenyl)-2-(dimethylamino)thiazolo[4,5-d]pyrimidin-5-yl]-6-methyl-morpholin-2-yl]-1H-pyridin-2-one]", "EC50": "< 100"}
{"smiles": "C[C@@H]1CN(c2nc(-c3ccc(F)cc3F)c3sc(N(C)C)nc3n2)C[C@H](c2ccc(=O)n(N)c2)O1", "note": "[Example 174, 1-amino-5-[(2S,6R)-4-[7-(2,4-difluorophenyl)-2-(dimethylamino)thiazolo[4,5-d]pyrimidin-5-yl]-6-methyl-morpholin-2-yl]pyridin-2-one]", "EC50": "< 100"}
{"smiles": "CNn1cc([C@H]2CN(c3nc(-c4ccc(F)cc4F)c4sc(N(C)C)nc4n3)C[C@@H](C)O2)ccc1=O", "note": "[Example 175, 5-[(2S,6R)-4-[7-(2,4-difluorophenyl)-2-(dimethylamino)thiazolo[4,5-d]pyrimidin-5-yl]-6-methyl-morpholin-2-yl]-1-(methylamino)pyridin-2-one]", "EC50": "< 100"}
{"smiles": "C[C@@H]1CN(c2nc(-c3ccc(F)cc3F)c3sc(N(C)C)nc3n2)C[C@H](c2ccc(=O)n(C)c2)O1", "note": "[Example 176, 5-[(2S,6R)-4-[7-(2,4-difluorophenyl)-2-(dimethylamino)thiazolo[4,5-d]pyrimidin-5-yl]-6-methyl-morpholin-2-yl]-1-methyl-pyridin-2-one]", "EC50": "< 100"}
{"smiles": "Cc1nc2nc([C@H]3CCO[C@@H](c4ccc(=O)n(N(C)C)c4)C3)nc(C34CC(C(F)(F)F)(C3)C4)c2nc1C", "note": "[Example 178, 1-(dimethylamino)-5-[(2R,4S)-4-[6,7-dimethyl-4-[3-(trifluoromethyl)-1-bicyclo[1.1.1]pentanyl]pteridin-2-yl]tetrahydropyran-2-yl]pyridin-2-one]", "EC50": "< 100"}
{"smiles": "CNn1cc([C@H]2C[C@@H](c3nc(C45CC(C(F)(F)F)(C4)C5)c4nc(C)c(C)nc4n3)CCO2)ccc1=O", "note": "[Example 179, 5-[(2R,4S)-4-[6,7-dimethyl-4-[3-(trifluoromethyl)-1-bicyclo[1.1.1]pentanyl]pteridin-2-yl]tetrahydropyran-2-yl]-1-(methylamino)pyridin-2-one]", "EC50": "< 100"}
{"smiles": "CCNn1cc([C@H]2C[C@@H](c3nc(C45CC(C(F)(F)F)(C4)C5)c4nc(C)c(C)nc4n3)CCO2)ccc1=O", "note": "[Example 181, 5-[(2R,4S)-4-[6,7-dimethyl-4-[3-(trifluoromethyl)-1-bicyclo[1.1.1]pentanyl]pteridin-2-yl]tetrahydropyran-2-yl]-1-(ethylamino)pyridin-2-one]", "EC50": "< 100"}
{"smiles": "[2H]C([2H])([2H])c1nc2nc(N3C[C@@H](C)O[C@@H](c4ccc(=O)n(C5CC5)c4)C3)nc(C34CC(C(F)(F)F)(C3)C4)c2nc1C([2H])([2H])[2H]", "note": "[Example 182, 5-[(2S,6R)-4-[6,7-bis(methyl-d3)-4-[3-(trifluoromethyl)-1-bicyclo[1.1.1]pentan-1-yl]pteridin-2-yl]-6-methyl-morpholin-2-yl]-1-cyclopropylpyridin-2(1H)-one]", "EC50": "< 100"}
{"smiles": "Cc1nc2nc(N3C[C@@H](C)O[C@@H](c4ccc(=O)n(C5CC5)c4)C3)nc(C34CC(C(F)(F)F)(C3)C4)c2nc1C1COC1", "note": "[Example 183, 1-cyclopropyl-5-((2S,6R)-6-methyl-4-(7-methyl-6-(oxetan-3-yl)-4-(3-(trifluoromethyl)bicyclo[1.1.1]pentan-1-yl)pteridin-2-yl)morpholin-2-yl)pyridin-2(1H)-one]", "EC50": "< 100"}
{"smiles": "Cc1nc2nc(N3C[C@@H](C)O[C@@H](c4ccc(=O)n(N)c4)C3)nc(C34CC(C(F)(F)F)(C3)C4)c2nc1C", "note": "[Example 184, 1-amino-5-[(2S,6R)-4-[6,7-dimethyl-4-[3-(trifluoromethyl)-1-bicyclo[1.1.1]pentanyl]pteridin-2-yl]-6-methyl-morpholin-2-yl]pyridin-2-one]", "EC50": "< 100"}
